Assay results from patent publication EP0415598A1, “Cosmetic composition” (UNILEVER PLC, priority 1989, dated 1991).

System: hair growth
Assay: Rat Hair Growth Test (topical application to clipped skin, cumulative hair weight)
Format: in vivo, male albino Wistar rats
Protocol: The effect of compounds on hair growth was assessed using male albino Wistar rats as an animal model. The rats were chosen from as few litters as possible and were each approximately 42 days of age at the start of the test. Each rat was housed individually to prevent licking.
In each comparison, 10 rats were used in each group and hair growth was assessed as follows:
A small patch of normal skin (4cm x 4cm) on the upper back of each rat was clipped at the start and 0.3 ml of a hair growth stimulant composition (or a control) applied topically twice daily and once on Saturdays and Sundays to each clipped area. The concentration of test compound in the composition was chosen from 0.01 to 20% by weight.
In any case, this concentration will lie within the range of from 0.01 to 20% by weight as stipulated above.
Hair was clipped from the area of the patch twice weekly, collected and weighed at each time point over a standard period of 3 months, and cumulative hair weight calculated. […] A positive response, i.e. an increase of at least 10% by weight of hair after 3 months treatment, compared with a control indicates the potential of the test compound to prevent hair loss and/or reverse baldness in human subjects.
In this example, the effect of topical application of N-acetyl glycine is shown. […]

## CC(=O)NCC(=O)O [N-acetyl glycine]
10% (w/v) N-acetyl glycine vs control (distilled water, pH 4.2), after 58 days, statistically significant
  increase in hair growth: 23%
10% (w/v) solution in distilled water adjusted to pH 4.2 with potassium hydroxide, topical, 0.3 ml twice daily, 58 days, control 505.9 ± 103.1, p =0.02 vs control
  Mean Cumulative Hair Weight (mg) ± sd, after 58 days: 622.8 ± 101.11 mg
